Earlier results in patent publication US11331299B2, “Medicinal use of serrulatane diterpenes” (The University of Sydney, priority 2016, dated 2022).

Molecular target: SETD2(h) (Homo sapiens, UniProt Q9BYW2)
Conditions: read-out: Reference: (IC50 not given); cited from earlier work

Sequence of SETD2(h) (Q9BYW2 whole entry): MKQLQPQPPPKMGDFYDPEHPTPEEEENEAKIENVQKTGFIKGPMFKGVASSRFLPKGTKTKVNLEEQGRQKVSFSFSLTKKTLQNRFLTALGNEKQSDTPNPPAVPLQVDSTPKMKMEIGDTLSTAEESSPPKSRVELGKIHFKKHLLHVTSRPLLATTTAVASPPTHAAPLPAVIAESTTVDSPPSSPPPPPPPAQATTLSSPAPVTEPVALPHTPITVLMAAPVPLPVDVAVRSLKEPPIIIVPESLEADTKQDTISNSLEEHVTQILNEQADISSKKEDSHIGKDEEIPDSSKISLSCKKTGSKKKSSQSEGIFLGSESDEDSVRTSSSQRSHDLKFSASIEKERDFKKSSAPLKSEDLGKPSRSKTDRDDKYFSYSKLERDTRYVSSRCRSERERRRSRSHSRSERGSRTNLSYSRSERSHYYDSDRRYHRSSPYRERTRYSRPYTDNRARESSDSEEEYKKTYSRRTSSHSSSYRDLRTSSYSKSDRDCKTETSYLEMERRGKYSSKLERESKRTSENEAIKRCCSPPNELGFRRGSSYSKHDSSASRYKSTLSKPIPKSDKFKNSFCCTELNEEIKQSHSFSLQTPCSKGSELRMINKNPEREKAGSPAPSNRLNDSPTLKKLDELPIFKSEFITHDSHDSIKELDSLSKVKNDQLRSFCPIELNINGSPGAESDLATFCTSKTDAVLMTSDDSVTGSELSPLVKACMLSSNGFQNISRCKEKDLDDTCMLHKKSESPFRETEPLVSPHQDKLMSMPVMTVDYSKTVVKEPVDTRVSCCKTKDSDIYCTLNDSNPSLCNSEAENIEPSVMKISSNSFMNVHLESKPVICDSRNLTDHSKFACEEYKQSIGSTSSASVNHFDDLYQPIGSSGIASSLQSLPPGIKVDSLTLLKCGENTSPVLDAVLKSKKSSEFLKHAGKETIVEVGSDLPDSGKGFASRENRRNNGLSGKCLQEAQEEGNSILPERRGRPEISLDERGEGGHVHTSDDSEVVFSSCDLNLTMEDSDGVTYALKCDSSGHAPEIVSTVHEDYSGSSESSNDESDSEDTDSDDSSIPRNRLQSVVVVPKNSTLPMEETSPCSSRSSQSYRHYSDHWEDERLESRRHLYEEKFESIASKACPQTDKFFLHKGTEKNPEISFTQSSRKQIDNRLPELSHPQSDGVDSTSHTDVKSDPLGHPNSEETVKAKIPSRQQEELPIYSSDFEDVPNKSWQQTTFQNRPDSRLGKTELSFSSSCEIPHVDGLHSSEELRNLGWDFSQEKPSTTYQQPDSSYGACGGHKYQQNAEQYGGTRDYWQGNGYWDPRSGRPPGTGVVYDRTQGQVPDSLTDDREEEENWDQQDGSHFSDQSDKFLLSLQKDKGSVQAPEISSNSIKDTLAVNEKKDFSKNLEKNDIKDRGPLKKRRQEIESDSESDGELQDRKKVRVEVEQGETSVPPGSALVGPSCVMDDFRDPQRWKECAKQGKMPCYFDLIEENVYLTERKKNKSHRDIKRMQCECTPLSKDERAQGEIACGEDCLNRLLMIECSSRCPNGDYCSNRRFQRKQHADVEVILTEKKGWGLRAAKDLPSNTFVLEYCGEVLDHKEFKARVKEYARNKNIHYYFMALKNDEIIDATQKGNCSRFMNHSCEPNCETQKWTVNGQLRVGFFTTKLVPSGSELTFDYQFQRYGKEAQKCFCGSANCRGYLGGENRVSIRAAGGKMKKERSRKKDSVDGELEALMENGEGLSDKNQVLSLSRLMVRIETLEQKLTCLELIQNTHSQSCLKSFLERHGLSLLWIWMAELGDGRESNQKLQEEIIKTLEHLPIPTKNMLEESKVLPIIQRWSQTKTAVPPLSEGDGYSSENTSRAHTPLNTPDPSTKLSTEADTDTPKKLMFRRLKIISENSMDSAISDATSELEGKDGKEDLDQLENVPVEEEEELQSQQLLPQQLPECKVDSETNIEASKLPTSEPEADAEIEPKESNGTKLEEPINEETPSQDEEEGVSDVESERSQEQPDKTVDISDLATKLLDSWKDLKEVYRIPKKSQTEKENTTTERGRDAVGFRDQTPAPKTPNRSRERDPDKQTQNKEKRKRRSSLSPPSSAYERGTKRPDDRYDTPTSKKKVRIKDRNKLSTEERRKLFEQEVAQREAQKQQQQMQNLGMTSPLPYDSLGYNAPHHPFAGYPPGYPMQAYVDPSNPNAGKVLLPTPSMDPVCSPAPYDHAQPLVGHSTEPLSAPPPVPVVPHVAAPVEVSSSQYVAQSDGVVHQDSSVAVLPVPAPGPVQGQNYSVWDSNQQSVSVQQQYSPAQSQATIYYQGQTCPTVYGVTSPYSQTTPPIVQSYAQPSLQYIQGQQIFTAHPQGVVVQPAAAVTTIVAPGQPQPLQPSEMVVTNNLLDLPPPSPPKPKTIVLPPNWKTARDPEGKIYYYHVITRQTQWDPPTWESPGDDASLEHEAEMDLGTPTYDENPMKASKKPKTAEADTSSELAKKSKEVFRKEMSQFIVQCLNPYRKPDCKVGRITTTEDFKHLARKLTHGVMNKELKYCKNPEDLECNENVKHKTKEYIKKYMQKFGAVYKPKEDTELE

Which IC50 does the source give for Nc1ncnc2c1ncn2[C@@H]1O[C@H](CSCC[C@H](N)C(=O)O)[C@@H](O)[C@H]1O [SAH] here?
The IC50 was 1200 nM.
